# According to article PMC7587962, “Evaluation of Cytotoxicity and α-Glucosidase Inhibitory Activity of Amide and Polyamino-Derivatives of Lupane Triterpenoids” (Molecules, 2020):
# What was measured:
# [1] = test system: Rat Liver ER Neutral α-Glucosidase; experiment: Endoplasmic reticulum α-glucosidase activity assay; type: biochemical
# Text: Betulinic acid inhibits yeast α-glucosidase activity and interferes with N-linked glycan modifications to cell-surface intercellular adhesion molecule-1 (ICAM-1) in human lung carcinoma A549 cells in a similar manner to castanospermine, an inhibitor of endoplasmic reticulum α-glucosidases I and II [66]. […] Taken together, these considerations prompted us to evaluate a series of lupanes with amide function or polyamine chain 11, 12, 16, 18, and 22–26 for α-glucosidase inhibition. Initially, they were screened against α-glucosidase of S. cerevisiae as an accessible and high-throughput model. Confirmatory experiments were performed on isolated rough endoplasmic reticulum vesicles from rat liver, which contain neutral α-glucosidases I and II in a membrane-bound form.
# Endoplasmic reticulum was isolated from hepatocytes of decapitated male Sprague-Dawley rats, which were starved overnight and sacrificed the next morning. All experiments were approved by Volgograd regional ethic committee. The whole procedure was performed at 4 °C. In brief, a fresh tissue sample from an animal was washed twice with 10 mL of PBS to remove residual blood. The tissue was placed on a paper towel in order to absorb excess liquid and blood clots, if present. It was cut further into small pieces (1.5–2 cm) and washed once more. […] Homogenate was centrifuged at 1000× g for 10 min at 4 °C. After removal of the floating lipid layer by aspiration, supernatant was separated and centrifuged at 12,000× g for 15 min. at 4 °C. The supernatant fraction, which is the post mitochondrial fraction (PMF), was used for isolation of rough endoplasmic reticulum (RER) enriched microsomes by precipitation with 8 mM CaCl2 added dropwise. The final concentration of CaCl2 was 7 mM. Resulting sample was centrifuged at 8000 g for 10 min. at 4 °C. The supernatant was discarded, and the pellet was suspended in isotonic extraction buffer (0.3 mL of buffer for each g of original tissue). The suspension was homogenized completely to afford RER enriched microsomes. In a 96-well flat transparent plate 25 µL of the isolated RER microsomes were incubated with 50 µL of test compounds in 67 mM PBS (pH 6.8) at 37 °C for 10 min. Then, p-nitrophenyl-α-D-glucopyranoside (Sigma #N1377, St. Louis, MO, USA) was added to 1 mM final concentration and increase in absorbance was recorded for 42 min at 405 nm wavelength with Infinite M200 PRO microplate reader (Tecan, Austria). Concentration of RER microsomes was adjusted to achieve an increase in optical density of ~0.2 in control samples after 30 min. of incubation. Test compounds were prepared as described above for the yeast α-glucosidase assay.
# Yeast α-Glucosidase = experiment: Yeast α-glucosidase activity assay; type: biochemical, S. cerevisiae; conditions: pH 6.8, 37 °C, p-nitrophenyl-α-D-glucopyranoside 1 mM; read-out: Yeast α-Glucosidase, IC50 ± SE
# Protocol: Taken together, these considerations prompted us to evaluate a series of lupanes with amide function or polyamine chain 11, 12, 16, 18, and 22–26 for α-glucosidase inhibition. Initially, they were screened against α-glucosidase of S. cerevisiae as an accessible and high-throughput model. Confirmatory experiments were performed on isolated rough endoplasmic reticulum vesicles from rat liver, which contain neutral α-glucosidases I and II in a membrane-bound form.
# In a 96-well flat transparent plate, the 0.12 U/mL enzyme solution (EC 3.2.1.20, expressed in S. cerevisiae, Sigma #G0660, St. Louis, MO, USA) was incubated with test compounds in 67 mM PBS (pH 6.8) at 37 °C for 5 min. Then, p-nitrophenyl-α-D-glucopyranoside (Sigma #N1377, St. Louis, MO, USA) was added to 1 mM final concentration and an increase in absorbance was recorded for 15 min at 405 nm wavelength with Infinite M200 PRO microplate reader (Tecan, Austria). Test compounds were dissolved in DMSO and diluted to the desired concentration in 67 mM PBS (pH 6.8) supplemented with 0.01% Tween 80 to avoid aggregation. Final DMSO concentration was <0.25% in sample wells, and it was also introduced in control and blank wells. […] Due to the absence of normal distribution of data, a Mann–Whitney U-test was used to determine statistical significance versus enzyme control using GraphPad Prism 8.0.1.
# A549/ATCC = test system: A549/ATCC; parameters: method as in PMID 25405285; conditions: standard drugs used by NCI as control; cited from earlier work
# T-47D = test system: T-47D; parameters: method as in PMID 25405285; conditions: standard drugs used by NCI as control; cited from earlier work
# BT-549 = test system: BT-549; parameters: method as in PMID 25405285; conditions: standard drugs used by NCI as control; cited from earlier work
# LOX IMVI = test system: LOX IMVI; parameters: method as in PMID 25405285; conditions: standard drugs used by NCI as control; cited from earlier work
# DU-145 = test system: DU-145; parameters: method as in PMID 25405285; conditions: standard drugs used by NCI as control; cited from earlier work
# SK-MEL-28 = test system: SK-MEL-28; parameters: method as in PMID 25405285; conditions: standard drugs used by NCI as control; cited from earlier work
# HOP-62 = test system: HOP-62; parameters: method as in PMID 25405285; conditions: standard drugs used by NCI as control; cited from earlier work
# HOP-92 = test system: HOP-92; parameters: method as in PMID 25405285; conditions: standard drugs used by NCI as control; cited from earlier work
# OVCAR-5 = test system: OVCAR-5; parameters: method as in PMID 25405285; conditions: standard drugs used by NCI as control; cited from earlier work
# UO-31 = test system: UO-31; parameters: method as in PMID 25405285; conditions: standard drugs used by NCI as control; cited from earlier work
# UACC-257 = test system: UACC-257; parameters: method as in PMID 25405285; conditions: standard drugs used by NCI as control; cited from earlier work
# RXF 393 = test system: RXF 393; parameters: method as in PMID 25405285; conditions: standard drugs used by NCI as control; cited from earlier work
# NCI-H522 = test system: NCI-H522; parameters: method as in PMID 25405285; conditions: standard drugs used by NCI as control; cited from earlier work
# SNB-19 = test system: SNB-19; parameters: method as in PMID 25405285; conditions: standard drugs used by NCI as control; cited from earlier work
# HT29 = test system: HT29; parameters: method as in PMID 25405285; conditions: standard drugs used by NCI as control; cited from earlier work
# MDA-MB-468 = test system: MDA-MB-468; parameters: method as in PMID 25405285; conditions: standard drugs used by NCI as control; cited from earlier work
# MDA-MB-435 = test system: MDA-MB-435; parameters: method as in PMID 25405285; conditions: standard drugs used by NCI as control; cited from earlier work
# CAKI-1 = test system: CAKI-1; parameters: method as in PMID 25405285; conditions: standard drugs used by NCI as control; cited from earlier work
smiles,measurement,setting,value
C=C(C)[C@@H]1CC[C@]2(C(=O)NCCNCCNCCN)CC[C@]3(C)[C@H](CC[C@@H]4[C@@]5(C)CCC(=O)C(C)(C)[C@@H]5CC[C@]43C)[C@@H]12 [Compound 11],"Rat Liver ER Neutral α-Glucosidase Inhibition, m ± SD",[1]; 10 μM,15.03 ± 8.98%
same,"Rat Liver ER Neutral α-Glucosidase Inhibition, m ± SD",[1]; 100 μM,43.60 ± 7.98 %
same,IC50,Yeast α-Glucosidase,4840 ± 1020 nM
"COc1cccc2c1C(=O)c1c(O)c3c(c(O)c1C2=O)C[C@@](O)(C(=O)CO)C[C@@H]3O[C@H]1C[C@H](N)[C@H](O)[C@H](C)O1 [DRB, doxorubicin]",GI50,A549/ATCC,60 nM
same,GI50,T-47D,60 nM
same,GI50,BT-549,230 nM
same,GI50,LOX IMVI,70 nM
same,GI50,DU-145,110 nM
same,GI50,SK-MEL-28,210 nM
same,GI50,HOP-62,70 nM
same,GI50,HOP-92,100 nM
same,GI50,OVCAR-5,410 nM
same,GI50,UO-31,490 nM
same,GI50,UACC-257,140 nM
same,GI50,RXF 393,100 nM
same,GI50,NCI-H522,30 nM
same,GI50,SNB-19,40 nM
same,GI50,HT29,120 nM
same,GI50,MDA-MB-468,50 nM
same,GI50,MDA-MB-435,250 nM
same,GI50,CAKI-1,950 nM
